Test [1] relates to primary human endothelial cells expressing luciferase under the control of the KLF2 promoter. Briefly: KLF2 induction cell based bioassay (GLuc KLF2 concentration response, luciferase reporter). Conditions: 24 hours incubation, 11-point concentration response; for IC50: 24 h, read-out: GLuc KLF2 Conc Response (IC50) Avg; for EC50: EC50 = concentration where normalized curve passes 0.5, read-out: GLuc KLF2 Conc Response (EC50) Ave. The source says:
In endothelial cell culture media, a stock of the highest working concentration was made at no more than 1% DMSO vehicle. The working stock was then serially diluted 1:2 to make an 11-point concentration response curve. Included in the 96-well plate were 2 reference compounds with known potencies. A DMSO column was included in the 96-well plate at the highest percent vehicle of the working stocks. The 96-well cell culture plate of primary human endothelial cells expressing luciferase under the control of the KLF2 promoter was dosed with 200 μL per well of the dilution series as well as the DMSO control column. The assay plate was incubated at 37° C. for 24 hours. The supernatant was collected at 24 hours.
20 μL of the supernatant was then placed in a 384-well plate with optical duplicates. The corners of the plate received 20 μL of the Gaussia Luciferase Enzyme positive control, as well as 20 μL of the 50 μM Coelenterizine substrate. The plate read is then calibrated using the control, and read using a Molecular Devices SpectraMax iD5, providing luminescence in relative light units (RLU). The plate reader injected 20 μL of the 50 μM Coelenterazine substrate immediately before taking the RLU measurement for each well.
The sample signals were then normalized to the average signal of the DMSO column, as well as to the maximum signal of one of the reference compounds, as shown in the equations below: […]
The EC50 of each compound is then defined as when the concentration response curve passes 0.5.

A further test deals with KLF2. Nature of the test: qPCR KLF2 concentration response. In kind it is cell-based. To be noted: read-out: qPCR KLF2 Conc Response (EC50). A general note: Quantitative PCR measures a nucleic acid by following its amplification.

From patent publication US20250109143A1, “KLF2 INDUCING DEUTERATED COMPOUNDS AND USES THEREOF” (Riparian Pharmaceuticals, Inc., priority 2023, published 2025) come the findings set out here.

In the case of `COc1ccccc1CNC(=O)C1(C)COc2c(oc3ccccc23)C(=O)N1CC1(F)CCC1` (centres unmarked) [Example 2], in test [1], the IC50 (as a rule, the concentration that inhibits the measured activity by half) worked out at 200 nM and the EC50 – broadly, the concentration needed to bring the measured effect to its halfway point – came to 20 nM. Moreover, in the test on KLF2, the EC50 was found to be 10 nM.

As for `COc1ccccc1CNC(=O)C1(C)COc2c(oc3ccccc23)C(=O)N1CC(C)(C)OC` (centres unmarked) [Example 3], in test [1], the IC50 was determined as 340 nM and the EC50 was 60 nM. The EC50 with KLF2 came out at 10 nM.

For `C#CCCN1C(=O)c2oc3ccccc3c2OCC1(C)C(=O)NCc1ccccc1OC` (centres unmarked) [Example 5], in test [1], the IC50 is 150 nM and the EC50 came out at 40 nM.

`C#CCCN1C(=O)c2oc3ccccc3c2OC[C@]1(C)C(=O)NCc1ccccc1OC` [Example 6]: in test [1], the IC50 is 70 nM and the EC50 came to 20 nM. Besides, the EC50 with KLF2 was found to be 10 nM.
